Converted amounts (≈) assume the structure as drawn. Where two headings read alike, the source gives them in different places.
Experiments:
[1] = test system: platelets in whole blood; experiment: Platelet function testing with the Hemostasis Mechanism Analyzer (HMA): clumping, sticking, clotting in whole blood; assay type: cell-based, human; details: for activity at 5000 µg/mL / activity at 6700 µg/mL / activity at 3300 µg/mL / activity at 670 µg/mL / activity at 700 µg/mL: Homo sapiens, Platelet; for activity at 700 µg/mL: Dosage (mg/ml) 0.7
[2] = test system: mitochondria isolated from liver of tilapia (Sarotheridon mossambica); assay type: biochemical
[3] = Dosage (mg/ml) 5, 0 dosage = 100, read-out: % clot time increase
[4] = Dosage (mg/ml) 5, 0 dosage = 100, read-out: % clump time increase
[5] = Dosage (mg/ml) 5, 0 dosage = 100, read-out: % stick time increase
[6] = Dosage (mg/ml) 6.7, 0 dosage = 100, read-out: % clot time increase
[7] = Dosage (mg/ml) 6.7, 0 dosage = 100, read-out: % clump time increase
[8] = Dosage (mg/ml) 6.7, 0 dosage = 100, read-out: % stick time increase
[9] = Dosage (mg/ml) 3.3, 0 dosage = 100, read-out: % clot time increase
[10] = Dosage (mg/ml) 3.3, 0 dosage = 100, read-out: % clump time increase
[11] = Dosage (mg/ml) 3.3, 0 dosage = 100, read-out: % stick time increase
[12] = read-out: % clump time increase
[13] = read-out: % stick time increase
[14] = in vitro whole blood assay, clumping, sticking, clotting
[15] = 0 dosage = 100, read-out: % clot time increase
[16] = 0 dosage = 100, read-out: % clump time increase
[17] = 0 dosage = 100, read-out: % stick time increase

SMILES | activity at 5000 µg/mL [1, 3] [%] | activity at 5000 µg/mL [1, 4] [%] | activity at 5000 µg/mL [1, 5] [%] | activity at 6700 µg/mL [1, 6] [%] | activity at 6700 µg/mL [1, 7] [%] | activity at 6700 µg/mL [1, 8] [%] | activity at 3300 µg/mL [1, 9] [%] | activity at 3300 µg/mL [1, 10] [%] | activity at 3300 µg/mL [1, 11] [%] | IC50 (mg/ml) mitochondria inhibition [2] [mg/mL] | further results
Cn1cnnc1S [Compound 33, 4-methyl-1,2,4-triazole-3-thiol] | 100 | 100 | 119 | 108 | 115 | 123 |  |  |  |  | 
Cn1cncn1 [Compound 8, 1-Methyl-1,2,4-triazole] | 105 | 121 | 118 | 105 | 130 | 121 | 104 | 105 | 98 |  | 
Cc1nnn[nH]1 [Compound 76, 5-methyl-1H-tetrazole] |  |  |  |  |  |  |  |  |  | 12.6 (≈ 150 mM) | activity at 670 µg/mL ([1]; read-out: % clot time increase): 91%; activity at 3300 µg/mL ([1]; read-out: % clot time increase): 120%; activity at 6700 µg/mL ([1]; read-out: % clot time increase): 301%; activity at 670 µg/mL [1, 12]: 129%; activity at 3300 µg/mL [1, 12]: 209%; activity at 670 µg/mL [1, 13]: 125%; activity at 3300 µg/mL [1, 13]: 217%; activity at 6700 µg/mL [1, 13]: 983%
NC(=O)c1nn[nH]n1 [Compound 71, 2H-tetrazole-5-carboxamide] |  |  |  |  |  |  |  |  |  | 36.3 (≈ 321 mM) | activity at 3300 µg/mL ([1]; read-out: % clot time increase): 112%; activity at 5000 µg/mL ([1]; read-out: % clot time increase): 122%; activity at 6700 µg/mL ([1]; read-out: % clot time increase): 137%; activity at 3300 µg/mL [1, 12]: 126%; activity at 5000 µg/mL [1, 12]: 171%; activity at 6700 µg/mL [1, 12]: 236%; activity at 3300 µg/mL [1, 13]: 116%; activity at 5000 µg/mL [1, 13]: 153%; activity at 6700 µg/mL [1, 13]: 205%
CCOC(=O)Cc1nnn[nH]1 [Compound 80, ethyl 2-(1H-tetrazol-5-yl)acetate] | 121 | 143 | 141 | 133 | 207 | 209 | 110 | 107 | 104 | 100 (≈ 640 mM) | 
C[N+](C)(C)[C@@H](Cc1c[nH]c(=S)[nH]1)C(=O)[O-] [Compound 50, (2S)-3-(2-thioxo-1,3-dihydroimidazol-4-yl)-2-(trimethylammonio) propanoate] |  |  |  |  |  |  |  |  |  | 86 (≈ 375 mM) | activity in the platelet assays (active agent or inactive) [1, 14]: inactive
OC(c1ccccc1)c1nnn[nH]1 (centres unmarked) [Compound 24, phenyl(1H-tetrazol-5-yl)methanol] | 113 | 156 | 152 | 116 | 160 | 143 | 105 | 126 | 124 |  | activity at 700 µg/mL [1, 15]: 96%; activity at 700 µg/mL [1, 16]: 109%; activity at 700 µg/mL [1, 17]: 105%
C[N+](C)(C)[C@H](Cc1c[nH]c(=S)[nH]1)C(=O)[O-] [Compound 51, (2R)-3-(2-thioxo-1,3-dihydroimidazol-4-yl)-2-(trimethylammonio) propanoate] |  |  |  |  |  |  |  |  |  | 93.8 (≈ 409 mM) | activity in the platelet assays (active agent or inactive) [1, 14]: inactive
Cc1ncsc1CCO [Compound 60, 2-(4-methylthiazol-5-yl)ethanol] | 110 | 158 | 155 | 115 | 192 | 182 | 104 | 136 | 135 |  | activity at 700 µg/mL [1, 15]: 100%; activity at 700 µg/mL [1, 16]: 108%; activity at 700 µg/mL [1, 17]: 103%
Oc1ccc(/C=C/c2cc(O)cc(O)c2)cc1 [Compound 89, 5-[(E)-2-(4-hydroxyphenyl)vinyl] benzene-1,3-diol] |  |  |  |  |  |  |  |  |  |  | activity in the platelet assays (active agent or inactive) [1]: none of them were active agents
N=C(N)NC(N)=S [Compound 102, carbamimidoylthiourea] |  |  |  |  |  |  |  |  |  |  | activity in the platelet assays (active agent or inactive) [1, 14]: none of them were active agents
